Laboratory results: patent US11191766B2, “Methods of treating pediatric cancers” (Loxo Oncology, Inc., priority 2016, dated 2021)
Structures can show the parent of a compound that is named as a salt.

Tests used:
[1] = Accelerated stability study in an LDPE bag at 40° C./75% RH for five weeks; type: physicochemical
[2] = Hygroscopicity: dynamic vapor sorption (DVS) / exposure to humidity; type: physicochemical; conditions: for hygroscopicity: non-hygroscopic = less than a 2% weight gain at 25° C. and 80% RH after 24 to 48 hours
Experimental: For the DVS measurement a sample of crystalline form (I-HS) was cycled through changing humidity conditions to determine its hygroscopicity. The sample was analyzed using a Surface Measurement System DVS-1 Dynamic Vapor Sorption System. […] Data was collected in 1 minute intervals. Nitrogen was used as the carrier gas. […] After completion of the sorption cycle, the sample was dried using the same procedure, but all the way down to 0% RH and finally taken back to the starting point of 20% RH. The weight change during the sorption/desorption cycles were plotted, allowing for the hygroscopic nature of the sample to be determined.
The crystalline form (I-HS), as noted previously, is non-hygroscopic. […] Given this tendency, use of the AM(HS) compound would require significant handling precautions during storage and manufacture to prevent this change in form from occurring whereas the crystalline form (I-HS) requires no such precautions during manufacture of the API.

[3] = first two cycles; fever and influenza A considered not related
[4] = system: Infantile Fibrosarcoma with NTRK3-ETV6 Fusion; test: Phase 1 pediatric study of oral liquid formulation, case of infantile fibrosarcoma (MR imaging response); type: in vivo, human
[5] = Flow properties (Carr's and Hausner Index); type: physicochemical
Description: The differences in flow properties can make the development of a solid oral dosage form more difficult for the amorphous API vs. the crystalline API.

Row | SMILES | chemical impurity levels over the course of the study [1] | hygroscopicity [2] | adverse events related to compound [3] | response on repeat scans ([4]; end of Cycle 2, size reduction confirmed, continued decrease in enhancement) | interval reduction in the size and enhancement of the mass from baseline (MR of the brain and neck) ([4]; end of cycle 1 (day 28), BID, patient) | clinical observation noted by the parents ([4]; throughout cycle 1) | change in crystalline form during DVS (XRPD post vs pre DVS) [2] | hysteresis between sorption and desorption cycles ([2]; DVS) | increase in mass during the sorption cycle ([2]; between 0% and 90% RH) | flow properties compared with amorphous API [5]
1 | O=C(Nc1cnn2ccc(N3CCC[C@@H]3c3cc(F)ccc3F)nc12)N1CC[C@H](O)C1.O=S(=O)(O)O [AM(HS), (S)—N-(5-((R)-2-(2,5-difluorophenyl)pyrrolidin-1-yl)-pyrazolo[1,5-a]pyrimidin-3-yl)-3-hydroxypyrrolidine-1-carboxamide hydrogen sulfate] | neither the AM(HS) or crystalline form (I-HS) exhibited a significant changes in chemical impurity levels | deliquesce upon exposure to humidity |  |  |  |  |  |  |  | 
2 | O=C(Nc1cnn2ccc(N3CCC[C@@H]3c3cc(F)ccc3F)nc12)N1CC[C@H](O)C1 [Compound I-HS, (S)—N-(5-((R)-2-(2,5-difluorophenyl)pyrrolidin-1-yl)-pyrazolo[1,5-a]pyrimidin-3-yl)-3-hydroxypyrrolidine-1-carboxamide hydrogen sulfate] |  |  | no adverse events related to Compound I-HS | partial response | more than 90% | improved engagement and playfulness |  |  |  | 
3 | O=C(Nc1cnn2ccc(N3CCC[C@@H]3c3cc(F)ccc3F)nc12)N1CC[C@H](O)C1 [crystalline form (I-HS), (S)—N-(5-((R)-2-(2,5-difluorophenyl)pyrrolidin-1-yl)-pyrazolo[1,5-a]pyrimidin-3-yl)-3-hydroxypyrrolidine-1-carboxamide hydrogen sulfate] | neither the AM(HS) or crystalline form (I-HS) exhibited a significant changes in chemical impurity levels | non-hygroscopic |  |  |  |  | no change | very small hysteresis | about 1.7% | better flow properties
